From patent US6737383B1, “Herbicidal oxadiazolidines” (priority 1999, dated 2004)

Tests used:
blackgrass = test: Test B pre/postemergence blackgrass; assay type: in vivo, Alopecurus myosuroides
In short: (§1)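 Herbicidal effect was estimated by eye on a ten-point control scale after plants spent twelve to sixteen days in a greenhouse following soil or foliar treatment. Foliar sprays targeted plants at one to four leaves; all doses were formulated in a non-phytotoxic solvent with surfactant.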

giant foxtail = test: Test B pre/postemergence giant foxtail; assay type: in vivo, Setaria faberii
In short: as §1

morningglory = test: Test B pre/postemergence morningglory; assay type: in vivo, Ipomoea hederacea
In short: as §1

rape = test: Test B pre/postemergence rape; assay type: in vivo, Brassica napus
In short: as §1

cocklebur = test: Test B pre/postemergence cocklebur; assay type: in vivo, Xanthium strumarium
In short: as §1

velvetleaf = test: Test B pre/postemergence velvetleaf; assay type: in vivo, Abutilon theophrasti
In short: as §1

surinam grass = test: Test B pre/postemergence surinam grass; assay type: in vivo, Brachiaria decumbens
In short: as §1

pigweed = test: Test B pre/postemergence pigweed; assay type: in vivo, Amaranthus retroflexus
In short: as §1

corn = test: Test B pre/postemergence corn; assay type: in vivo, Zea mays
In short: as §1

soybean = test: Test B pre/postemergence soybean; assay type: in vivo, Glycine max
In short: as §1

purple nutsedge = test: Test B pre/postemergence purple nutsedge; assay type: in vivo, Cyperus rotundus
In short: as §1

wild oat = test: Test B pre/postemergence wild oat; assay type: in vivo, Avena fatua
In short: as §1

sugar beet = test: Test B pre/postemergence sugar beet; assay type: in vivo, Beta vulgaris
In short: as §1

wheat = test: Test B pre/postemergence wheat; assay type: in vivo, Triticum aestivum
In short: as §1

bedstraw = test: Test B pre/postemergence bedstraw; assay type: in vivo, Galium aparine
In short: as §1

crabgrass = test: Test B pre/postemergence crabgrass; assay type: in vivo, Digitaria sanguinalis
In short: as §1

[1] = Postemergence, Rate 62 g/ha, scale of 0 to 10, 0 is no effect, 10 is complete control
[2] = Postemergence, Rate 125 g/ha, scale 0 to 10, 0 is no effect, 10 is complete control
[3] = Postemergence, Rate 500 g/ha, scale 0 to 10, 0 is no effect, 10 is complete control
[4] = Preemergence, Rate 62 g/ha, scale 0 to 10 (0 no effect, 10 complete control)
[5] = Preemergence, Rate 125 g/ha, scale 0 to 10, 0 is no effect, 10 is complete control
[6] = Preemergence, Rate 500 g/ha, scale of 0 to 10 where 0 is no effect and 10 is complete control
[7] = Rate 250 g/ha, Postemergence, scale of 0 to 10 where 0 is no effect and 10 is complete control

## CC(C)N(C(=O)n1oc(=O)n(C(C)C(=O)c2ccccc2)c1=O)c1ccc(Cl)cc1 (stereo not drawn) [Compound 541]
blackgrass; [1]
  Blackgrass plant response rating: 0
blackgrass; [2]
  Blackgrass plant response rating: 0
blackgrass; [3]
  Plant response rating, Blackgrass: 0
blackgrass; [4]
  Blackgrass plant response rating: 0
blackgrass; [5]
  Blackgrass plant response rating: 0
blackgrass; Preemergence, Rate 250 g/ha
  Blackgrass plant response rating (0 to 10 scale): 0
blackgrass; [6]
  Blackgrass plant response rating: 2
blackgrass; [7]
  Plant response rating, Blackgrass: 0
Giant foxtail; [1]
  Giant foxtail plant response rating: 0
Giant foxtail; [2]
  Giant foxtail plant response rating: 0
Giant foxtail; [3]
  Plant response rating, Giant foxtail: 2
Giant foxtail; [4]
  Giant foxtail plant response rating: 7
Giant foxtail; [5]
  Giant foxtail plant response rating: 10
Giant foxtail; Preemergence, Rate 250 g/ha
  Giant foxtail plant response rating (0 to 10 scale): 10
Giant foxtail; [6]
  Giant foxtail plant response rating: 10
Giant foxtail; [7]
  Plant response rating, Giant foxtail: 0
morningglory; [1]
  Morningglory plant response rating: 0
morningglory; [2]
  Morningglory plant response rating: 1
morningglory; [3]
  Plant response rating, Morningglory: 3
morningglory; [4]
  Morningglory plant response rating: 0
morningglory; [5]
  Morningglory plant response rating: 0
morningglory; Preemergence, Rate 250 g/ha
  Morningglory plant response rating (0 to 10 scale): 0
morningglory; [6]
  Morningglory plant response rating: 0
morningglory; [7]
  Plant response rating, Morningglory: 1
rape; [1]
  Rape plant response rating: 0
rape; [2]
  Rape plant response rating: 0
rape; [3]
  Plant response rating, Rape: 3
rape; [4]
  Rape plant response rating: 0
rape; [5]
  Rape plant response rating: 0
rape; Preemergence, Rate 250 g/ha
  Rape plant response rating (0 to 10 scale): 0
rape; [6]
  Rape plant response rating: 0
rape; [7]
  Plant response rating, Rape: 3
cocklebur; [1]
  Cocklebur plant response rating: 0
cocklebur; [2]
  Cocklebur plant response rating: 0
cocklebur; [3]
  Plant response rating, Cocklebur: 5
cocklebur; [5]
  Cocklebur plant response rating: 0
cocklebur; [7]
  Plant response rating, Cocklebur: 5
velvetleaf; [1]
  Velvetleaf plant response rating: 0
velvetleaf; [2]
  Velvetleaf plant response rating: 0
velvetleaf; [3]
  Plant response rating, Velvetleaf: 0
velvetleaf; [4]
  Velvetleaf plant response rating: 0
velvetleaf; [5]
  Velvetleaf plant response rating: 0
velvetleaf; Preemergence, Rate 250 g/ha
  Velvetleaf plant response rating (0 to 10 scale): 0
velvetleaf; [6]
  Velvetleaf plant response rating: 0
velvetleaf; [7]
  Plant response rating, Velvetleaf: 0
Surinam grass; [1]
  B. signalgrass plant response rating: 0
Surinam grass; [2]
  B. signalgrass plant response rating: 0
Surinam grass; [3]
  Plant response rating, B. signalgrass: 2
Surinam grass; [4]
  B. signalgrass plant response rating: 0
Surinam grass; [5]
  B. signalgrass plant response rating: 0
Surinam grass; Preemergence, Rate 250 g/ha
  B. signalgrass plant response rating (0 to 10 scale, 0 is no effect, 10 is complete control): 0
Surinam grass; [6]
  B. signalgrass plant response rating: 5
Surinam grass; [7]
  Plant response rating, B. signalgrass: 0
pigweed; [1]
  Redroot pigweed plant response rating: 0
pigweed; [2]
  Redroot pigweed plant response rating: 0
pigweed; [3]
  Plant response rating, Redroot pigweed: 3
pigweed; [4]
  Redroot pigweed plant response rating: 0
pigweed; [5]
  Redroot pigweed plant response rating: 0
pigweed; Preemergence, Rate 250 g/ha
  Redroot pigweed plant response rating (0 to 10 scale): 0
pigweed; [6]
  Redroot pigweed plant response rating: 0
pigweed; [7]
  Plant response rating, Redroot pigweed: 0
corn; [1]
  Corn plant response rating: 0
corn; [2]
  Corn plant response rating: 0
corn; [3]
  Plant response rating, Corn: 0
corn; [4]
  Corn plant response rating: 0
corn; [5]
  Corn plant response rating: 0
corn; Preemergence, Rate 250 g/ha
  Corn plant response rating (0 to 10 scale): 0
corn; [6]
  Corn plant response rating: 0
corn; [7]
  Plant response rating, Corn: 0
soybean; [1]
  Soybean plant response rating: 0
soybean; [2]
  Soybean plant response rating: 0
soybean; [3]
  Plant response rating, Soybean: 2
soybean; [4]
  Soybean plant response rating: 0
soybean; [5]
  Soybean plant response rating: 0
soybean; Preemergence, Rate 250 g/ha
  Soybean plant response rating (0 to 10 scale): 0
soybean; [6]
  Soybean plant response rating: 0
soybean; [7]
  Plant response rating, Soybean: 1
Purple nutsedge; [1]
  Nutsedge plant response rating: 0
Purple nutsedge; [2]
  Nutsedge plant response rating: 0
Purple nutsedge; [3]
  Plant response rating, Nutsedge: 0
Purple nutsedge; [5]
  Nutsedge plant response rating: 0
Purple nutsedge; Preemergence, Rate 250 g/ha
  Nutsedge plant response rating (0 to 10 scale): 0
Purple nutsedge; [6]
  Nutsedge plant response rating: 0
Purple nutsedge; [7]
  Plant response rating, Nutsedge: 0
Wild oat; [1]
  Wild oats plant response rating: 0
Wild oat; [2]
  Wild oats plant response rating: 0
Wild oat; [3]
  Plant response rating, Wild oats: 2
Wild oat; [4]
  Wild oats plant response rating: 0
Wild oat; [5]
  Wild oats plant response rating: 0
Wild oat; Preemergence, Rate 250 g/ha
  Wild oats plant response rating (0 to 10 scale): 5
Wild oat; [6]
  Wild oats plant response rating: 5
Wild oat; [7]
  Plant response rating, Wild oats: 0
Sugar beet; [1]
  Sugarbeets plant response rating: 0
Sugar beet; [2]
  Sugarbeets plant response rating: 0
Sugar beet; [3]
  Plant response rating, Sugarbeets: 4
Sugar beet; [4]
  Sugarbeets plant response rating: 0
Sugar beet; [5]
  Sugarbeets plant response rating: 0
Sugar beet; Preemergence, Rate 250 g/ha
  Sugarbeets plant response rating (0 to 10 scale): 0
Sugar beet; [6]
  Sugarbeets plant response rating: 2
Sugar beet; [7]
  Plant response rating, Sugarbeets: 0
wheat; [1]
  Wheat plant response rating: 0
wheat; [2]
  Wheat plant response rating: 0
wheat; [3]
  Plant response rating, Wheat: 0
wheat; [4]
  Wheat plant response rating: 0
wheat; [5]
  Wheat plant response rating: 0
wheat; Preemergence, Rate 250 g/ha
  Wheat plant response rating (0 to 10 scale): 3
wheat; [6]
  Wheat plant response rating: 3
wheat; [7]
  Plant response rating, Wheat: 0
bedstraw; [1]
  Bedstraw plant response rating: 0
bedstraw; [3]
  Plant response rating, Bedstraw: 5
bedstraw; [4]
  Bedstraw plant response rating: 0
bedstraw; [5]
  Bedstraw plant response rating: 0
bedstraw; Preemergence, Rate 250 g/ha
  Bedstraw plant response rating (0 to 10 scale): 0
bedstraw; [6]
  Bedstraw plant response rating: 3
bedstraw; [7]
  Plant response rating, Bedstraw: 5
crabgrass; [1]
  Crabgrass plant response rating: 0
crabgrass; [2]
  Crabgrass plant response rating: 0
crabgrass; [3]
  Plant response rating, Crabgrass: 3
crabgrass; [4]
  Crabgrass plant response rating: 5
crabgrass; [5]
  Crabgrass plant response rating: 5
crabgrass; Preemergence, Rate 250 g/ha
  Crabgrass plant response rating (0 to 10 scale): 10
crabgrass; [6]
  Crabgrass plant response rating: 10
crabgrass; [7]
  Plant response rating, Crabgrass: 0
